Source: PubChem BioAssay (NCI)
Several values for one entry are separate records, joined by “and”; a condition that tells them apart may be missing. Equal values may be shown once.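 Values below derive from 48-hour exposures of cells grown in 96-well plates, with endpoints linearly interpolated between the two concentrations bracketing the appropriate inhibition level. At the GI50, growth is halved. TGI denotes the concentration required for complete inhibition of growth.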 Where a SMILES comes first, the peptide text is derived from it. The star is where a group is joined. Boc = CC(C)(C)OC(=O)*

What was measured:
Experiment in all cases: DTP human tumour cell line panel, 48 h
NCI-H23 lung = tested on: NCI-H23 lung
HT29 colon = tested on: HT29 colon
SK-OV-3 ovarian = tested on: SK-OV-3 ovarian
OVCAR-4 ovarian = tested on: OVCAR-4 ovarian
DU-145 prostate = tested on: DU-145 prostate
HOP-62 NSCLC = tested on: HOP-62 NSCLC
NCI-H460 lung = tested on: NCI-H460 lung
CAKI-1 renal = tested on: CAKI-1 renal
SF-539 CNS = tested on: SF-539 CNS
SK-MEL-2 melanoma = tested on: SK-MEL-2 melanoma

Row | SMILES | GI50 (NCI-H23 lung) | TGI (NCI-H23 lung) | GI50 (HT29 colon) [µM] | TGI (HT29 colon) | GI50 (SK-OV-3 ovarian) [µM] | TGI (SK-OV-3 ovarian) [µM] | GI50 (OVCAR-4 ovarian) [µM] | TGI (OVCAR-4 ovarian) | GI50 (DU-145 prostate) | TGI (DU-145 prostate) | GI50 (HOP-62 NSCLC) [µM] | TGI (HOP-62 NSCLC) | GI50 (NCI-H460 lung) | TGI (NCI-H460 lung) | GI50 (CAKI-1 renal) [µM] | TGI (CAKI-1 renal) | GI50 (SF-539 CNS) [µM] | TGI (SF-539 CNS) | GI50 (SK-MEL-2 melanoma) [µM] | TGI (SK-MEL-2 melanoma)
1 | O=[N+]([O-])c1cccc2ccc(N/N=C/c3ccccc3O)nc12 | > 100 µM | > 100 µM | > 100 | > 100 µM | > 100 | > 100 | > 100 | > 100 µM | > 23.8 µM | > 100 µM | > 100 | > 100 µM | > 100 µM | > 100 µM | > 100 | > 100 µM | > 100 | > 100 µM | > 100 | > 100 µM
2 | COc1cc(/C=C\c2cc(OC)c(OC)c(OC)c2)cc(N/C=C\C(=O)c2cc(OC)c(OC)c(OC)c2)c1OC | 4.22 µM | > 100 µM | 3.21 | 14.8 µM | 2.91 | > 100 | 2.91 | > 100 µM | 3.64 µM | > 100 µM | 2.46 | > 100 µM | 3.93 µM | > 100 µM | 3.37 | > 100 µM | 1.92 | 4.51 µM | 4.54 | > 100 µM
3 | C/C(=N\NC(=S)N1CCCCCC1)c1ccccn1 | < 0.0182 µM | 5.85 µM and 6.33 µM |  | 2.52 µM and 10.6 µM |  | 2.28 | < 0.0412 | 2.52 µM and 3.25 µM | 0.408 µM | 6.29 µM and 3.25 µM | 0.0381 | 2.4 µM and 3.98 µM | 0.0421 µM | 1.47 µM and 2.22 µM | < 0.0393 | 5.45 µM and 10.4 µM | 0.143 | 1.74 µM and 2.26 µM | 0.0694 | 0.569 µM and 1.83 µM
4 | C[C@@]12CCC[C@@](C)(C(=O)O)C1CC[C@]13CC(=O)[C@](CO)(C1)[C@@H](O)CC32 (some centres undefined) | > 100 µM | > 100 µM | > 100 | > 100 µM | > 100 | > 100 | > 100 | > 100 µM | > 100 µM | > 100 µM | > 100 | > 100 µM | > 100 µM | > 100 µM | > 100 | > 100 µM | > 100 | > 100 µM | > 100 | > 100 µM
5 | Cc1ccc(Nc2oc(-c3ccccc3)nc2[P+](c2ccccc2)(c2ccccc2)c2ccccc2)cc1 | 0.458 µM | 2.08 µM | 0.38 | 1.59 µM | 1.58 | 3.69 | 0.357 | 2.07 µM | 1.34 µM | 4.16 µM | 1.34 | 3.24 µM | 0.804 µM | 2.2 µM | 1.22 | 2.72 µM | 1.59 | 3.02 µM | 0.625 | 1.85 µM
6 | CC12CCC3c4ccc(O)cc4CCC3C1C/C(=N\O)C2O (centres undefined) |  | > 100 µM |  | > 100 µM |  | > 100 |  | > 100 µM |  | > 100 µM |  | > 100 µM |  | > 100 µM |  | > 100 µM |  | > 100 µM |  | > 100 µM
7 | CCc1ccc(/C=C/c2ccc(O)c3ncccc23)[n+](C)c1 | 4.2 µM | > 100 µM | > 29.3 | > 100 µM | 26.9 | > 100 | 5.6 | > 100 µM | 4.96 µM | > 100 µM |  | > 100 µM | 0.507 µM | > 100 µM | 39.2 | > 100 µM | 20.4 | > 100 µM | > 71.7 | > 100 µM
8 | O=C(Nc1ccc(Cl)c(C(F)(F)F)c1)c1ccc(NC2=C(Cl)C(=O)N(Cc3ccccc3)C2=O)cc1 |  |  | 7.47 | > 100 µM | 26.9 | 60.5 | 11.4 | 69.9 µM | 2.45 µM | 6.71 µM | 22.4 | 46.1 µM | 7.04 µM | 42.3 µM | 19.4 | 38.6 µM | 8.92 | 23.9 µM | 13.8 | 38.7 µM
9 | CN(C)c1ncnc2c1ncn2CCn1cnc2c(N(C)C)ncnc21 |  | > 100 µM |  | > 100 µM |  | > 100 |  | > 100 µM |  | > 100 µM |  | > 100 µM |  | > 100 µM |  | > 100 µM |  | > 100 µM |  | > 100 µM
10 | COc1cc(/C=C/C(=O)c2cccc(-n3cc(-c4ccc(Cl)cc4)[nH]c3=O)c2)ccc1O | 4.43 µM | 24.4 µM | 2.97 | > 100 µM | 4.78 | > 30.2 | 3.11 | > 23.7 µM | 2.6 µM | 7.55 µM | 3.87 | 15 µM | 6.43 µM | 21.7 µM | 5.02 | 44.9 µM | 1.86 | 4.05 µM | 3.61 | 14.4 µM
11 | COC(=O)C(C)NC(=O)C(CCSC)NC(=O)C(Cc1ccccc1)NC(=O)OC(C)(C)C (stereo not drawn) (Boc-Phe-Met-Ala-OMe; configuration not given here) | 41.9 µg/mL | > 100 µM |  | > 100 µM |  | > 100 |  | > 100 µM | 43.7 µg/mL | > 100 µM |  | > 100 µM | 40.6 µg/mL | > 100 µM |  | > 100 µM |  | > 100 µM |  | > 100 µM
12 | COc1ccc(Cn2c(N)c(S(=O)(=O)c3ccc(Cl)cc3)c3nc(C#N)c(C#N)nc32)cc1 | 17 µM | > 50 µM |  |  | 10.8 | 49.4 | 25.2 | > 50 µM | 20.2 µM | > 50 µM | > 50 | > 50 µM | 2.94 µM | > 50 µM | 21.9 | > 50 µM | > 50 | > 50 µM | 29.8 | > 50 µM
13 | COc1ccc(-c2nnc(N3CCN(C(=O)CN4CCN(c5ccccc5)CC4)CC3)nc2-c2ccc(OC)cc2)cc1 | 6.92 µM | > 100 µM |  |  | 14.5 | 70.7 | 6.36 | > 100 µM | 13.4 µM | > 100 µM | 13 | 42.7 µM | 4.2 µM | > 100 µM | 6.23 | > 100 µM | 6.03 | 35.3 µM | 9.13 | 55.8 µM
